Laboratory results reported in US8916550B2, “Compounds for modulating TRPV3 function” (Hydra Biosciences, Inc., priority 2005, dated 2014).

Columns and labels:
[1] = tested on: Male Holtzman rats, thermal injury; test: Thermal injury model, thermal escape latency (Hargreaves); format: in vivo, rat
Protocol: The thermal injury model was used to evaluate the effectiveness of an exemplary TRPV3 inhibitor in the treatment of nociceptive pain. FIG. 1 provides a schematic representation of the protocol used to evaluate a TRPV3 inhibitor in the thermal injury model.
(§1) Briefly, the following protocol was followed. Male Holtzman rats (approximately 300 grams) were tested on thermal escape using a Hargreaves type apparatus. Under light anesthesia, a thermal injury (52° C. for 45 seconds) was applied to one heel. The animals were tested for thermal escape latency of the injured and uninjured paw before and at 30, 60, 80 and 120 minutes after injury. Drug (a TRPV3 inhibitor or morphine) or vehicle (0.5% methylcellulose) was administered after the baseline measurement and approximately 15-20 minutes prior to the thermal injury. In addition to the escape latency measurement, behavioral observations were made throughout the experiment.

[2] = tested on: rats, carrageenan-injected hindpaw; settings: Table B comparators; based on our data as well as data available in the literature; cited from earlier work
Male Holtzman rats [3] = test: Behavioral deficits / side effects observed in thermal injury experiment (animals affected of n); format: in vivo, rat; settings: for Blistered paw / Catalepsy / Corneal response / Exopthalmos / Pinna response / Spontaneous agitation / Tactile allodynia: 10 mg/kg
Protocol: as §1
Table A provides a comparison of the side-effects observed in rats following administration of TRPV3 inhibitor 64, at varying concentrations, versus the side-effects observed in rats administered 10 mg/kg of morphine. Side-effects of rats administered 0.5% methycellulouse were observed and served as a control.

Male Holtzman rats [4] = settings: Table B comparators; based on our data as well as data available in the literature; cited from earlier work
[5] = tested on: rats, CFA injected hindpaw; settings: Table B comparators; based on our data as well as data available in the literature; cited from earlier work
[6] = tested on: Male Holtzman rats, thermal injury; settings: Table B comparators; based on our data as well as data available in the literature; cited from earlier work
[7] = tested on: Male Holtzmann rats, intraplantar formalin; settings: Table B comparators; based on our data as well as data available in the literature; cited from earlier work

CN1CC[C@]23c4c5ccc(O)c4O[C@H]2[C@@H](O)C=C[C@H]3[C@H]1C5 [Morphine, morphine]
Effect on escape latency of injured and un-injured paw ([1]; morphine (FIG. 4)): does have an effect on both the injured and un-injured paw | Thermal escape latency after treatment ([1]; morphine, FIG. 4 legend): elevated above the baseline | Carrageenan Model [2]: Effective | Blistered paw (Male Holtzman rats [3]; Pre Injury Observation): 0 of 7 | Catalepsy (Male Holtzman rats [3]; Pre Injury Observation): 0 of 7 | Corneal response (Male Holtzman rats [3]; Pre Injury Observation): 0 of 7 | Exopthalmos (Male Holtzman rats [3]; Pre Injury Observation): 0 of 7 | Pinna response (Male Holtzman rats [3]; Pre Injury Observation): 0 of 7 | Spontaneous agitation (Male Holtzman rats [3]; Pre Injury Observation): 0 of 7 | Tactile allodynia (Male Holtzman rats [3]; Pre Injury Observation): 0 of 7 | Blistered paw (Male Holtzman rats [3]; t = 30 min): 0 of 7 | Catalepsy (Male Holtzman rats [3]; t = 30 min): 4 of 7 | Corneal response (Male Holtzman rats [3]; t = 30 min): 0 of 7 | Exopthalmos (Male Holtzman rats [3]; t = 30 min): 6 of 7 | Pinna response (Male Holtzman rats [3]; t = 30 min): 5 of 7 | Spontaneous agitation (Male Holtzman rats [3]; t = 30 min): 0 of 7 | Tactile allodynia (Male Holtzman rats [3]; t = 30 min): 0 of 7 | Blistered paw (Male Holtzman rats [3]; t = 60 min): 0 of 7 | Catalepsy (Male Holtzman rats [3]; t = 60 min): 3 of 7 | Corneal response (Male Holtzman rats [3]; t = 60 min): 0 of 7 | Exopthalmos (Male Holtzman rats [3]; t = 60 min): 6 of 7 | Pinna response (Male Holtzman rats [3]; t = 60 min): 2 of 7 | Spontaneous agitation (Male Holtzman rats [3]; t = 60 min): 0 of 7 | Tactile allodynia (Male Holtzman rats [3]; t = 60 min): 0 of 7 | Blistered paw (Male Holtzman rats [3]; t = 90 min): 0 of 7 | Catalepsy (Male Holtzman rats [3]; t = 90 min): 1 of 7 | Corneal response (Male Holtzman rats [3]; t = 90 min): 0 of 7 | Exopthalmos (Male Holtzman rats [3]; t = 90 min): 6 of 7 | Pinna response (Male Holtzman rats [3]; t = 90 min): 0 of 7 | Spontaneous agitation (Male Holtzman rats [3]; t = 90 min): 0 of 7 | Tactile allodynia (Male Holtzman rats [3]; t = 90 min): 0 of 7 | Blistered paw (Male Holtzman rats [3]; t = 120 min): 0 of 7 | Catalepsy (Male Holtzman rats [3]; t = 120 min): 0 of 7 | Corneal response (Male Holtzman rats [3]; t = 120 min): 0 of 7 | Exopthalmos (Male Holtzman rats [3]; t = 120 min): 0 of 7 | Pinna response (Male Holtzman rats [3]; t = 120 min): 0 of 7 | Spontaneous agitation (Male Holtzman rats [3]; t = 120 min): 0 of 7 | Tactile allodynia (Male Holtzman rats [3]; t = 120 min): 0 of 7 | Side-effects of administration (Male Holtzman rats [3]; morphine 10 mg/kg): exopthalmos (bulging eyes), catalepsy (a near catatonic state), and the pinna response | Non-narcotic (Male Holtzman rats [4]): Narcotic | CFA Model [5]: Effective | Acute thermal injury [6]: Effective

O=C(NCc1ccc(C(F)(F)F)cc1)Nc1cccc2cnccc12 [TRPV1 Antagonist]
Carrageenan Model [2]: Effective | CFA Model [5]: Effective | Acute thermal injury [6]: Effective | Formalin Model [7]: Ineffective
